Results published in patent US20120122928A1 (priority 2010, published 2012).
Marks after values point to notes of the source that are not given here.

Columns and labels:
Plasmopara viticola = assay: Plasmopara test (grapevine) / protective; assay type: in vivo; conditions: young grapevine plants sprayed, active ingredient concentration 10 ppm; evaluation 6 days after inoculation; 100% = no infection
Method: Plasmopara Test (Grapevine)/Protective
To produce an appropriate active ingredient formulation, 1 part by weight of active ingredient is mixed with the specified amounts of solvent and emulsifier, and the concentrate is diluted with water to the desired concentration.
To test for protective efficacy, young plants are sprayed with the active ingredient formulation at the stated application rate. After the spray coating has dried on, the plants are inoculated with an aqueous spore suspension of Plasmopara viticola and then remain in an incubation cabin at approx. 20° C. and 100% relative air humidity for 1 day. Subsequently, the plants are placed in a greenhouse at approx. 21° C. and approx. 90% air humidity for 4 days. The plants are then moistened and placed in an incubation cabin for 1 day.
Evaluation follows 6 days after the inoculation. 0% means an efficacy which corresponds to that of the control, whereas an efficacy of 100% means that no infection is observed.
In this test, the following inventive compounds show, at an active ingredient concentration of 10 ppm, an efficacy of 70% or more: […]

[1] = LC-MS determination in the acidic range, pH 2.7, 0.1% aqueous formic acid and acetonitrile
Phytophthora infestans = assay type: in vivo; conditions: young tomato plants sprayed, active ingredient concentration of 100 (unit not given); inoculated 1 day after treatment; evaluation 7 days after inoculation; 100% = no infection

| Compound | % eff. (Plasmopara viticola) [%] | Log P [a] [1] | % eff. (Phytophthora infestans) [%] |
| --- | --- | --- | --- |
| O=C(Cn1nc(C(F)F)cc1C(F)F)N1CCC(c2nc(C3=NOC(C(F)(F)c4cccs4)C3)cs2)CC1 (stereo not drawn) [I-57] | 100 | 3.33^[a] | 95 |
| Cc1cc(C(F)(F)F)nn1CC(=O)N1CCC(c2nc(C3=NOC(COc4c(F)cccc4F)C3)cs2)CC1 (stereo not drawn) [I-54] | 97 | 3.34 | 100 |
| CC(C)(c1c(F)cccc1F)C1CC(c2csc(C3CCN(C(=O)Nc4cc(C(F)F)ccc4C(F)F)CC3)n2)=NO1 (stereo not drawn) [I-68] | 96 | 4.29 | 94 |
| O=C(Cn1nc(C(F)F)cc1C(F)F)N1CCC(c2nc(C3=NOC(CSc4ccccc4Cl)C3)cs2)CC1 (stereo not drawn) [I-61] | 93 | 3.68 | 91 |
| COc1cccc(C=O)c1OCC1CC(c2csc(C3CCN(C(=O)Cn4nc(C(F)F)cc4C(F)F)CC3)n2)=NO1 (stereo not drawn) [I-72] | 81 | 3.02 | 95 |
| CN(CC1CC(c2csc(C3CCN(C(=O)Cn4nc(C(F)F)cc4C(F)F)CC3)n2)=NO1)c1ccccc1 (stereo not drawn) [I-14] | – | 3.47 | 95 |
| O=C(Cn1nc(C(F)F)cc1C(F)F)N1CCC(c2nc(C3=NOC(CS(=O)(=O)c4ccccc4)C3)cs2)CC1 (stereo not drawn) [I-7] | 96 | 2.65^[a]; 2.65^[b] | 100 |
| FC(F)c1cc(C(F)F)n(CC(=S)N2CCC(c3nc(C4=NOC(COc5ccccc5)C4)cs3)CC2)n1 (stereo not drawn) [I-34] | 96 | 3.73 | 100 |
| Cc1ccc(C)c(CC(=O)N2CCC(c3nc(C4=NOC(COc5ccccc5)C4)cs3)CC2)c1 (stereo not drawn) [I-29] | 78 | 3.71 | 100 |
| O=Cc1ccccc1OCC1CC(c2csc(C3CCN(C(=O)Cn4nc(C(F)F)cc4C(F)F)CC3)n2)=NO1 (stereo not drawn) [I-73] | – | 2.83^[a]; 2.83^[b] | 90 |
| CC(C)(c1c(F)cccc1Cl)C1CC(c2csc(C3CCN(C(=O)Nc4cc(C(F)F)ccc4C(F)F)CC3)n2)=NO1 (stereo not drawn) [I-53] | – | 4.53 | 91 |
| Cc1ccc(C)c(NC(=S)N2CCC(c3nc(C4=NOC(C(F)(F)c5c(F)cccc5F)C4)cs3)CC2)c1 (stereo not drawn) [I-27] | 92 | 3.81^[a] | 90 |
| O=C(Cn1nc(C(F)F)cc1C(F)F)N1CCC(c2nc(C3=NOC(C(F)c4ccccc4)C3)cs2)CC1 (stereo not drawn) [I-5] | 100 | 3.23^[a] | 100 |
| O=C(Cn1nc(C(F)F)cc1C(F)F)N1CCC(c2nc(C3=NOC(CSc4ccccc4Br)C3)cs2)CC1 (stereo not drawn) [I-63] | 96 | 3.72 | 91 |
| O=C(Cn1nc(C(F)F)cc1C(F)F)N1CCC(c2nc(C3=NOC(CSc4ccccc4F)C3)cs2)CC1 (stereo not drawn) [I-55] | 100 | 3.54 | 94 |
| Cc1cc(C(F)F)nn1CC(=O)N1CCC(c2nc(C3=NOC(COc4c(F)cccc4F)C3)cs2)CC1 (stereo not drawn) [I-48] | 96 | 3.01 | – |
| CC(C)(c1ccccc1)C1CC(c2csc(C3CCN(C(=O)Cn4nc(C(F)F)cc4C(F)F)CC3)n2)=NO1 (stereo not drawn) [I-4] | 97 | 3.79^[a] | 100 |
| CON=Cc1ccccc1OCC1CC(c2csc(C3CCN(C(=O)Cn4nc(C(F)F)cc4C(F)F)CC3)n2)=NO1 (mixture of isomers) [I-60] | – | 3.39^[a]; 3.39^[b] | 94 |
| Cc1ccc(C)c(NC(=S)N2CCC(c3nc(C4=NOC(C(F)(F)c5ccccc5)C4)cs3)CC2)c1 (stereo not drawn) [I-21] | 85 | 3.86^[a] | 95 |
| Cc1cc(C(F)(F)F)nn1CC(=O)N1CCC(c2nc(C3=NOC(C(F)c4ccccc4)C3)cs2)CC1 (stereo not drawn) [I-19] | 94 | 3.3^[a] | 100 |
| CC(C)(c1c(F)cccc1Cl)C1CC(c2csc(C3CCN(C(=O)Cn4nc(C(F)F)cc4C(F)F)CC3)n2)=NO1 (stereo not drawn) [I-69] | 95 | 4.32 | 94 |
| O=C(Cn1nc(C(F)F)cc1C(F)F)N1CCC(c2nc(C3=NOC(C(F)(F)c4c(F)cccc4F)C3)cs2)CC1 (stereo not drawn) [I-22] | 100 | 3.47^[a] | 95 |
| O=C(Cn1nc(C(F)F)cc1C(F)F)N1CCC(c2nc(C3=NOC(COc4ccccc4C=NO)C3)cs2)CC1 (mixture of isomers) [I-64] | 73 | 2.62 | 95 |
| CC(C)(c1c(F)cccc1F)C1CC(c2csc(C3CCN(C(=O)Cn4nc(C(F)F)cc4C(F)F)CC3)n2)=NO1 (stereo not drawn) [I-66] | 100 | 4.05 | 94 |

| Compound | % eff. (Plasmopara viticola) [%] | Log P [a] [1] | % eff. (Phytophthora infestans) [%] |
| --- | --- | --- | --- |
| Cc1ccc(C)c(NC(=S)N2CCC(c3nc(C4=NOC(C(F)c5c(F)cccc5F)C4)cs3)CC2)c1 (stereo not drawn) [I-32] | 78 | 3.80^[a] | 94 |
| O=C(Cn1nc(C(F)F)cc1C(F)F)N1CCC(c2nc(C3=NOC(COc4ccccc4Cl)C3)cs2)CC1 (stereo not drawn) [I-71] | 100 | 3.35 | 100 |
| Cc1ccc(C)c(NC(=O)N2CCC(c3nc(C4=NOC(COc5ccccc5)C4)cs3)CC2)c1 (stereo not drawn) [I-41] | 94 | 3.36 | 100 |
| Cc1cc(C(F)(F)F)nn1CC(=O)N1CCC(c2nc(C3=NOC(COc4c(Cl)cccc4Cl)C3)cs2)CC1 (stereo not drawn) [I-65] | 100 | 3.9 | 84 |
| Cc1ccc(C)c(NC(=O)N2CCC(c3nc(C4=NOC(COc5c(Cl)cccc5Cl)C4)cs3)CC2)c1 (stereo not drawn) [I-56] | 100 | 3.89 | 94 |
| Cc1ccc(Cl)cc1NC(=O)N1CCC(c2nc(C3=NOC(COc4c(F)cccc4Cl)C3)cs2)CC1 (stereo not drawn) [I-51] | 93 | 3.81 | 95 |
| Cc1cc(C(F)(F)F)nn1CC(=O)N1CCC(c2nc(C3=NOC(C(C)(C)c4c(F)cccc4Cl)C3)cs2)CC1 (stereo not drawn) [I-67] | 100 | 4.43 | 94 |
| Cc1cc(C(F)(F)F)nn1CC(=O)N1CCC(c2nc(C3=NOC(C(F)(F)c4ccccc4)C3)cs2)CC1 (stereo not drawn) [I-25] | 94 | 3.55^[a] | 100 |
| O=C(Nc1cc(C(F)F)ccc1C(F)F)N1CCC(c2nc(C3=NOC(C(F)c4ccccc4)C3)cs2)CC1 (stereo not drawn) [I-24] | 94 | 3.41^[a] | 100 |
| O=C(Cn1nc(C(F)F)cc1C(F)F)N1CCC(c2nc(C3=NOC(COc4c(F)cccc4Br)C3)cs2)CC1 (stereo not drawn) [I-75] | 98 | 3.67 | – |
| O=C(Cn1nc(C(F)F)cc1C(F)F)N1CCC(c2nc(C3=NOC(COc4c(Cl)cccc4Cl)C3)cs2)CC1 (stereo not drawn) [I-1] | 100 | 3.7 | 100 |
| O=C(Cn1nc(C(F)F)cc1C(F)F)N1CCC(c2nc(C3=NOC(C(O)(c4ccccc4)C(F)(F)F)C3)cs2)CC1 (stereo not drawn) [I-49] | – | 3.2 | 97 |
| Cc1ccc(Cl)cc1NC(=O)N1CCC(c2nc(C3=NOC(COc4c(Cl)cccc4Cl)C3)cs2)CC1 (stereo not drawn) [I-59] | 100 | 4.08^[a]; 4.08^[b] | 94 |
| O=C(Cn1nc(C(F)F)cc1C(F)F)N1CCC(c2nc(C3=NOC(CSc4ccccc4)C3)cs2)CC1 (stereo not drawn) [I-10] | 93 | 3.46 | 100 |
| O=C(Cc1cc(Cl)ccc1Cl)N1CCC(c2nc(C3=NOC(COc4ccccc4)C3)cs2)CC1 (stereo not drawn) [I-23] | 89 | 3.89 | 95 |
| CC(O)(c1c(F)cccc1F)C1CC(c2csc(C3CCN(C(=O)Cn4nc(C(F)F)cc4C(F)F)CC3)n2)=NO1 (stereo not drawn) [I-47] | 95 | 3.03 | 93 |
| Cc1cc(C(F)(F)F)nn1CC(=O)N1CCC(c2nc(C3=NOC(C(F)(F)c4c(F)cccc4F)C3)cs2)CC1 (stereo not drawn) [I-28] | 98 | 3.51^[a] | 100 |
| O=C(Cn1nc(C(F)F)cc1C(F)F)N1CCC(c2nc(C3=NOC(C(O)c4ccccc4)C3)cs2)CC1 (stereo not drawn) [I-8] | 93 | 2.53^[a] | 100 |
| Cc1ccc(Cl)cc1NC(=O)N1CCC(c2nc(C3=NOC(COc4c(F)cccc4F)C3)cs2)CC1 (stereo not drawn) [I-50] | 97 | 3.66 | 92 |
| Cc1ccc(Cl)cc1NC(=O)N1CCC(c2nc(C3=NOC(COc4ccccc4)C3)cs2)CC1 (stereo not drawn) [I-33] | – | 3.54 | 100 |
| CC(C)(c1ccccc1)C1CC(c2csc(C3(F)CCN(C(=O)Cn4nc(C(F)F)cc4C(F)F)CC3)n2)=NO1 (stereo not drawn) [I-11] | – | 4.03^[a] | 95 |
| Cc1ccccc1SCC1CC(c2csc(C3CCN(C(=O)Cn4nc(C(F)F)cc4C(F)F)CC3)n2)=NO1 (stereo not drawn) [I-70] | – | 3.78 | 95 |
| Cc1ccccc1OCC1CC(c2csc(C3CCN(C(=O)Cn4nc(C(F)F)cc4C(F)F)CC3)n2)=NO1 (stereo not drawn) [I-13] | – | 3.5 | 100 |
| COc1ccc(C)cc1NC(=O)N1CCC(c2nc(C3=NOC(COc4ccccc4)C3)cs2)CC1 (stereo not drawn) [I-38] | – | 3.59 | 100 |
